Data from PMC5792431 (Scientific Reports, 2018).
Converted amounts (≈) assume the structure as drawn. Like-named read-outs stand apart in the source and are kept apart here.

Experiments:
[1] = system: rRVFVΔNSs::Katushka; test: microbe, parasite or virus in culture; type: cell-based, Rift Valley fever virus; settings: for EC50: read-out: EC50, inhibition of fluorescent cell foci
[2] = in vitro; settings: human, Caco-2, pH 7.4
[3] = physchem; settings: pH 7.4
[4] = in vitro; settings: human, microsomes, pH 7.4
[5] = in vitro; settings: both, human, plasma, pH 7.4
[6] = physchem; settings: 37 °C, pH 7.4, aqueous buffer, thermodynamic from solid
[7] = human
[8] = human, microsomes, pH 7.4
[9] = in vitro; settings: human, hepatocytes
[10] = system: RVFV virions; type: cell-based, Rift Valley fever virus
[11] = in vitro; settings: mouse, microsomes, pH 7.4
[12] = in vitro; settings: mouse, plasma, pH 7.4
[13] = physchem; settings: plasma or biological fluid
[14] = system: rRVFVΔNSs::Katushka; test: microbe, parasite or virus in culture; type: cell-based; settings: Rift Valley fever virus, A549, 16 h, read-out: EC50, inhibition of RVFV RNA expression (qPCR)
[15] = mouse, microsomes, pH 7.4
[16] = female, BALB/C, mouse, in vivo
[17] = system: rRVFVΔNSs::Katushka; test: microbe, parasite or virus in culture; type: cell-based, Rift Valley fever virus
[18] = system: A549 cells; settings: cited from earlier work
[19] = mouse, in vivo
[20] = system: rRVFVΔNSs::Katushka; type: cell-based, Rift Valley fever virus
[21] = in vivo; settings: female, BALB/C, mouse
[22] = Rift Valley fever virus, A549, 16 h

CC(C)(C)C(=O)Nc1ccccc1C(=O)Nc1ccccc1C(=O)O [17d]
EC50, inhibition of fluorescent cell foci [1]: out of range

O=C(O)c1ccccc1NC(=O)c1ccccc1NC(=O)C1CCCCC1 [17e]
EC50, inhibition of fluorescent cell foci [1]: out of range

O=C(Nc1cc(Cl)ccc1C(=O)Nc1ccccc1C(=O)O)c1ccccc1F [35f]
EC50 [1, 22]: 4.5 µM
EC50 [1]: 4.6 µM

O=C(Nc1ccccc1C(=O)Nc1ccccc1C(=O)O)c1ccccc1 [Benzavir-1, 2-{[2-(benzoylamino)benzoyl]amino}-benzoic acid]
Papp A→B [2]: 32 ± 3 ×10⁻⁶ cm/s
Papp B→A [2]: 31 ± 2 ×10⁻⁶ cm/s
efflux ratio [2]: 1
logD [3]: 1.52 ± 0.02
microsomal CLint [4]: 3.9 ± 0.8 µL/min/mg
fraction unbound [5]: 0.0003
EC50 [1, 22]: 10.1 µM
solubility [6]: 930 ± 110 µM (≈ 335 µg/mL)
CLH, u (HHep) [7]: 2.3 L/h
CLH, u (HLM) [8]: 1.0 L/h
hepatocyte CLint [9]: 3.1 ± 0.1 µL/min/1e6 cells

O=C(Nc1cc(F)c(F)cc1C(=O)Nc1ccccc1C(=O)O)c1ccccc1F [Benzavir-2, 2-(4,5-difluoro-2-(2-fluorobenzamido)benzamido)benzoic acid]
Papp A→B [2]: 55 ± 4 ×10⁻⁶ cm/s
Papp B→A [2]: 45 ± 3 ×10⁻⁶ cm/s
efflux ratio [2]: 0.8
inhibition of binding or uptake of RVFV virions [10]: No inhibition of binding or uptake of RVFV virions
microsomal CLint [11]: 3.8 ± 0.9 µL/min/mg
logD [3]: 1.56 ± 0.01
fraction unbound [12]: 0.0076 ± 0.0002
solubility [13]: > 150 µM
microsomal CLint [4]: 3.8 ± 0.4 µL/min/mg
EC50 [14]: 1.7 µM
CLH, u (MLM) [15]: 0.15 L/h
fraction unbound [5]: 0.0004 ± 0.0002
Fapp ([16]; ip, 2 mg/kg): 43 ± 15%
Fapp ([16]; ip, 10 mg/kg): 120 ± 40%
iv CL relative to unbound in vitro metabolic CL ([16]; iv): 2–4 times higher
Fapp ([16]; po, 2 mg/kg): 14 ± 5%
Fapp ([16]; po, 10 mg/kg): 54 ± 18%
EC50 [1, 22]: 0.6 µM
solubility [6]: 130 ± 10 µM (≈ 53.9 µg/mL)
inhibition of release of viable progeny particles to the supernatant ([17]; 1.25 μM): > 95%
EC50 ([17]; Rift Valley fever virus, A549, 16 h, read-out: EC50, inhibition of production of progeny infectious virus): 0.6 µM
CC50 [18]: not achieved within these concentrations
CLH, u (HHep) [7]: 4.0 L/h
weight loss or negative behavioural signs [19]: No weight loss or negative behavioural signs were observed
inhibitory effect by time of addition [20]: the inhibitory effect on the formation of the fluorescent cell foci was the greatest
Cmax ([21]; ip, 2 mg/kg): 2.3 µM
Tmax ([21]; ip, 2 mg/kg): 15 min
half-life ([21]; ip, 2 mg/kg): 84 ± 12 min
Cmax ([21]; ip, 10 mg/kg): 28 µM
Tmax ([21]; ip, 10 mg/kg): 15 min
half-life ([21]; ip, 10 mg/kg): 96 ± 12 min
Cmax ([21]; iv, 1 mg/kg): 7.8 µM
Vd ([21]; iv, 1 mg/kg): 29 ± 7 L/kg
clearance ([21]; iv, 1 mg/kg): 9.33 mL/min
half-life ([21]; iv, 1 mg/kg): 42 ± 12 min
Cmax ([21]; iv, 2 mg/kg): 7.8 µM
Vd ([21]; iv, 2 mg/kg): 20 ± 2 L/kg
clearance ([21]; iv, 2 mg/kg): 6.17 mL/min
half-life ([21]; iv, 2 mg/kg): 42 ± 6 min
Cmax ([21]; iv, 4 mg/kg): 20 µM
Vd ([21]; iv, 4 mg/kg): 35 ± 7 L/kg
clearance ([21]; iv, 4 mg/kg): 11.3 mL/min
half-life ([21]; iv, 4 mg/kg): 42 ± 6 min
Cmax ([21]; po, 2 mg/kg): 0.4 µM
Tmax ([21]; po, 2 mg/kg): 30 min
half-life ([21]; po, 2 mg/kg): 180 ± 36 min
Cmax ([21]; po, 10 mg/kg): 13 µM
Tmax ([21]; po, 10 mg/kg): 30 min
half-life ([21]; po, 10 mg/kg): 180 ± 60 min
CLH, u (HLM) [8]: 1.4 L/h
hepatocyte CLint [9]: 4.1 ± 0.4 µL/min/1e6 cells
